These results are taken from ChEMBL document CHEMBL4330178 (ACS Med Chem Lett, 2019).

The target of test [1] is von Hippel-Lindau disease tumor suppressor/Mitogen-activated protein kinase 14 (Homo sapiens) (UniProt Q16539+P40337). Description: Protac activity at E3 ubiquitin ligase/p38alpha in human MDA-MB-231 cells assessed as p38alpha degradation after 4 hrs by ELISA relative to control. It is filed as cell-based.
The target of test [2] is von Hippel-Lindau disease tumor suppressor/Mitogen-activated protein kinase 14 (Homo sapiens, UniProt P40337+Q16539). Kind of test: Protac activity at E3 ubiquitin ligase/p38alpha in human MDA-MB-231 cells assessed as p38alpha degradation after 4 hrs by ELISA. It is filed as cell-based.

pIC50: −log10 of the molar value.

Chain of von Hippel-Lindau disease tumor suppressor/Mitogen-activated protein kinase 14 (Q16539 whole entry): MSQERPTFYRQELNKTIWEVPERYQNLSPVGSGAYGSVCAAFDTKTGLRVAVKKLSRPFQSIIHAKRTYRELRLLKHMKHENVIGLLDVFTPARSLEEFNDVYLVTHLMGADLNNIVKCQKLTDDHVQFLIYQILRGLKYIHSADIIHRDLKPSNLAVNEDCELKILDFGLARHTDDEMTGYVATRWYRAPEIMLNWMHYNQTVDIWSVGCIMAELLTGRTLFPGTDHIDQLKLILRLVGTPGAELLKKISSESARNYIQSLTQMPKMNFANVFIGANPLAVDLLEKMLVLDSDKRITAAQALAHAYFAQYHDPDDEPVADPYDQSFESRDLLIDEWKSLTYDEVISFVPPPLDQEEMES
Chain of von Hippel-Lindau disease tumor suppressor/Mitogen-activated protein kinase 14 (P40337 whole entry): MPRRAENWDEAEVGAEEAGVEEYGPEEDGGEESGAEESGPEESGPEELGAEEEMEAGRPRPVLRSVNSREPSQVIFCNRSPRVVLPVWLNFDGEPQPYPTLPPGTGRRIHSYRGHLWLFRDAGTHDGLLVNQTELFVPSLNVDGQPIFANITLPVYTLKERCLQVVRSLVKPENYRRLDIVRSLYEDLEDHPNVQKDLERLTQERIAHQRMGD
Chain of von Hippel-Lindau disease tumor suppressor/Mitogen-activated protein kinase 14 (Homo sapiens) (P40337 whole entry partner): as the sequence (P40337 whole entry) above
Chain of von Hippel-Lindau disease tumor suppressor/Mitogen-activated protein kinase 14 (Homo sapiens) (Q16539 2-360 limits assumed): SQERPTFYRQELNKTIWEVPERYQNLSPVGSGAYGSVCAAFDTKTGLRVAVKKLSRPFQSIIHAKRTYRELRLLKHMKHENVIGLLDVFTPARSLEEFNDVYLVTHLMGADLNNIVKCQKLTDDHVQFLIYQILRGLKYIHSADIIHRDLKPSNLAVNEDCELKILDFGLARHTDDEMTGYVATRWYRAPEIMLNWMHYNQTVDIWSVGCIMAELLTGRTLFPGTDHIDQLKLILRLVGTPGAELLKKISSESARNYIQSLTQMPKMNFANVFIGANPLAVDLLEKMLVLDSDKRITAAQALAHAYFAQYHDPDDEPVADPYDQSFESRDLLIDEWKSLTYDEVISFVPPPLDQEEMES

As for `COc1cc2c(Oc3ccc(NC(=O)C4(C(=O)Nc5ccc(F)cc5)CC4)cc3F)ccnc2cc1OCCCOCCOCCC(=O)N[C@H](C(=O)N1C[C@H](O)C[C@H]1C(=O)NCc1ccc(-c2scnc2C)cc1)C(C)(C)C`, the Emax in test [1] was 91%. In addition, the pIC50 in test [2] was 7.73.
The like results for `COc1cc2c(Oc3ccc(NC(=O)C4(C(=O)Nc5ccc(F)cc5)CC4)cc3F)ccnc2cc1OCCOCCOCCC(=O)N[C@H](C(=O)N1C[C@H](O)C[C@H]1C(=O)NCc1ccc(-c2scnc2C)cc1)C(C)(C)C` were, in that order, 81% and 7.40.
For `COc1cc2c(Oc3ccc(NC(=O)C4(C(=O)Nc5ccc(F)cc5)CC4)cc3F)ccnc2cc1OCCCOCCCOCCC(=O)N[C@H](C(=O)N1C[C@H](O)C[C@H]1C(=O)NCc1ccc(-c2scnc2C)cc1)C(C)(C)C` the same measures were 95% and 7.30.
